Measurements reported in PubChem BioAssay (NCI).
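1) Cells in 96-well plates. 2) Compound, 48 h, 5 concentrations. 3) Linear interpolation between surrounding doses. 4) Unreached endpoint = highest concentration. TGI: total growth inhibition.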

Tests used:
Assay in all cases: growth of human tumour cells (NCI), 48 h
EKVX NSCLC = system: EKVX NSCLC
NCI-H522 lung = system: NCI-H522 lung
786-0 renal = system: 786-0 renal
UACC-62 melanoma = system: UACC-62 melanoma
UO-31 renal = system: UO-31 renal
SK-OV-3 ovarian = system: SK-OV-3 ovarian
SK-MEL-28 melanoma = system: SK-MEL-28 melanoma
UACC-257 melanoma = system: UACC-257 melanoma
LOX IMVI melanoma = system: LOX IMVI melanoma
SNB-19 CNS = system: SNB-19 CNS
OVCAR-8 ovarian = system: OVCAR-8 ovarian
NCI-H23 lung = system: NCI-H23 lung
MCF7 breast = system: MCF7 breast
RPMI-8226 leukemia = system: RPMI-8226 leukemia
A549 NSCLC = system: A549 NSCLC
SK-MEL-5 melanoma = system: SK-MEL-5 melanoma
SK-MEL-2 melanoma = system: SK-MEL-2 melanoma
MALME-3M melanoma = system: MALME-3M melanoma

Row | Compound | TGI (EKVX NSCLC) [µM] | TGI (NCI-H522 lung) [µM] | TGI (786-0 renal) [µM] | TGI (UACC-62 melanoma) [µM] | TGI (UO-31 renal) [µM] | TGI (SK-OV-3 ovarian) [µM] | TGI (SK-MEL-28 melanoma) [µM] | TGI (UACC-257 melanoma) [µM] | TGI (LOX IMVI melanoma) [µM] | TGI (SNB-19 CNS) [µM] | TGI (OVCAR-8 ovarian) [µM] | TGI (NCI-H23 lung) [µM] | TGI (MCF7 breast) [µM] | TGI (RPMI-8226 leukemia) [µM] | TGI (A549 NSCLC) [µM] | TGI (SK-MEL-5 melanoma) [µM] | TGI (SK-MEL-2 melanoma) [µM] | TGI (MALME-3M melanoma) [µM]
1 | CN(C)c1nc(NN)c2c(-c3ccccc3)c(-c3ccccc3)oc2n1 | > 100 | > 100 | > 100 | > 100 | > 100 | > 100 | > 100 | > 100 | > 100 | > 100 | > 100 | > 100 | > 100 | > 100 | > 100 | – | – | –
2 | COc1ccc2oc(C(=O)N3CC(CCl)c4ccc([N+](=O)[O-])cc43)cc2c1 (configuration not stated) | > 100 | – | 46 | > 100 | > 100 | 48.7 | > 100 | > 100 | > 100 | > 100 | > 100 | > 100 | – | > 100 | – | > 100 | > 100 | –
3 | Cc1ccc(S(=O)(=O)OC2C(C3COC(C)(C)O3)OC3OC(C)(C)OC32)cc1 (configuration not stated) | > 100 | > 100 | > 100 | > 100 | > 100 | – | > 100 | > 100 | > 100 | > 100 | > 100 | > 100 | – | – | > 100 | > 100 | > 100 | > 100
4 | COc1cccc(/C=C2\CCCCCC2=O)c1 | > 100 | > 100 | > 100 | > 100 | > 100 | > 100 | > 100 | > 100 | > 100 | > 100 | – | > 100 | – | > 100 | > 100 | > 100 | > 100 | > 100
5 | O=C(NCCO)Nc1c(C(F)(F)F)cc(-c2ccccc2)[nH]c1=O | > 100 | – | > 100 | > 100 | > 100 | > 100 | > 100 | > 100 | > 100 | > 100 | > 100 | > 100 | > 100 | > 100 | > 100 | > 100 | > 100 | –
6 | COc1ccc2c(c1)OC[C@@H]1c3cc4c(cc3O[C@H]21)OCO4 | > 100 | > 100 | > 100 | – | > 100 | > 100 | > 100 | – | > 100 | > 100 | > 100 | > 100 | – | > 100 | > 100 | > 100 | > 100 | > 100
7 | Cn1c(-c2ccc(/C=N\N3CCN(/N=C/c4ccc(-c5c[n+]6ccsc6n5C)cc4)CC3)cc2)c[n+]2ccsc12 | > 100 | > 100 | > 100 | 95.7 | > 100 | > 100 | – | 67.9 | > 100 | > 100 | > 100 | > 100 | > 100 | 89.4 | > 100 | 84.6 | > 100 | –
